Data set [1] is described as follows: Determination of pH value of SAMe microcapsules. Type of data set: physicochemical. Particulars: 1 g of sample added to 100 g of water. The procedure:
1 g of each of the above samples was taken and added to 100 g of water, and the pH value was measured.

The subject of data set [2] is mouse gastrointestinal tract. The data set is described as follows: Effect on mouse gastrointestinal tract (indomethacin/ethanol ulcer model, gastric mucosal lesion area). Type of data set: in vivo, mice (C57). The conditions noted are these: mice, 5.0 g/kg·bw gavage once a day for 21 days, then indomethacin 10 mg/kg·bw i.p. and 60% ethanol gavage. The source says:
Experimental animals: Healthy adult mice (C57, purchased from Pabeile Experimental Animal Breeding Co., Ltd.), with body weight of 18 to 22 g.
Experimental materials: The test samples were SAMe microcapsules obtained from the formulas in Examples 1 to 5 and Comparative Examples 1 to 9, and SAMe raw material.
Experimental method: The designed dose (5.0 g/kg·bw) was equivalent to 5 times the recommended dosage for humans, and an ulcer model control group was set. Each group was gavaged with the test sample once a day, and the control group was fed with an equal volume of distilled water. After 21 consecutive days of feeding, the animals were fasted for 1 day. 0.5 h after the last gavage, the mice of each group were intraperitoneally injected with indomethacin suspension (purchased from Liaoyang Helin Pharmaceutical Co., Ltd.) (10 mg/kg·bw), and 1 h later, the mice were gavaged with 60% ethanol ([…]). After 1 h, the mice were killed by cervical dislocation, laparotomy and ligation of pylorus were carried out, and 1 mL of 1% formalin was orally gavaged. The cardia was immediately ligated and the entire stomach was cut off. After flushing the stomach contents, the stomach was spread on a glass plate. Under a shadowless magnifying lamp, the area of gastric mucosal lesions was measured and statistically analyzed.

Turning to “S-Adenosyl-L-methionine Disulfate Tosylate [SAMe raw material]”, in data set [1], the pH value stood at 1.3. In data set [2], the “Lesion area (gastric mucosal lesions)” value is recorded as 11.57 ± 4.35 mm^2.

For the origin of these results see patent US20250367230A1, “Method for preparing SAMe microcapsules” (XIAMEN KINGDOMWAY BIOTECH. CO., LTD., priority 2024, published 2025).
